Results reported in patent US20250228239A1, “MOLECULES HAVING PESTICIDAL UTILITY, AND INTERMEDIATES, COMPOSITIONS, AND PROCESSES, RELATED THERETO” (priority 2024, published 2025).

Experiments:
[1] = tested on: Cabbage Looper (Trichoplusia ni, TRIPNI); test: Bioassays on Cabbage Looper (CL), 128-well diet tray assay; format: in vivo; conditions: Trichoplusia ni; Table ABC: Biological Results; species CL; read-out: CL
Protocol: (§1) Certain molecules disclosed in this document were tested against BAW and CL using procedures described in the following examples. In the reporting of the results, the “BAW & CL Rating Table” was used (See Table Section).
Bioassays on CL were conducted using a 128-well diet tray assay. One to five second instar CL larvae were placed in each well (3 mL) of the diet tray that had been previously filled with 1 mL of artificial diet to which 50 μg/cm^2 of the test molecule (dissolved in 50 μL of 90:10 acetone-water mixture) had been applied (to each of eight wells) and then allowed to dry. Trays were covered with a clear self-adhesive cover, vented to allow gas exchange, and held at 25° C., 14:10 light-dark for five to seven days. Percent mortality was recorded for the larvae in each well; activity in the eight wells was then averaged. The results are indicated in the table entitled “Table ABC: Biological Results” (See Table Section).

[2] = tested on: Beet Armyworm (Spodoptera exigua, LAPHEG); test: Bioassays on Beet Armyworm (BAW), 128-well diet tray assay; format: in vivo; conditions: Spodoptera exigua; Table ABC: Biological Results; species BAW; read-out: BAW
Protocol: as §1
Bioassays on BAW were conducted using a 128-well diet tray assay. One to five second instar BAW larvae were placed in each well (3 mL) of the diet tray that had been previously filled with 1 mL of artificial diet to which 50 μg/cm^2 of the test molecule (dissolved in 50 μL of 90:10 acetone-water mixture) had been applied (to each of eight wells) and then allowed to dry. Trays were covered with a clear self-adhesive cover, vented to allow gas exchange, and held at 25° C., 14:10 light-dark for five to seven days. Percent mortality was recorded for the larvae in each well; activity in the eight wells was then averaged. The results are indicated in the table entitled “Table ABC: Biological Results” (See Table Section).

## CC(=O)Nc1c(C)ccc(NC(=O)c2cc(NC(=O)[C@H]3[C@H](c4cc(Cl)cc(Cl)c4)C3(Cl)Cl)ccc2Cl)c1C (relative stereo) [F1128, trans-N-(3-Acetamido-2,4-dimethylphenyl)-2-chloro-5-(2,2-dichloro-3-(3,5-dichlorophenyl)cyclopropane-1-carboxamido)benzamide]
[1]
  pest or weed control at 50 µg/cm2: 50 to 100%
[2]
  pest or weed control at 50 µg/cm2: 50 to 100%

## O=C(Nc1cc(F)c(NC(=O)C(Cl)(Cl)Cl)c(F)c1)c1cc(NC(=O)[C@H]2[C@H](c3ccc(Cl)c(Cl)c3)C2(Cl)Cl)ccc1Cl (relative stereo) [F1146, trans-2-Chloro-5-(2,2-dichloro-3-(3,4-dichlorophenyl)cyclopropane-1-carboxamido)-N-(3,5-difluoro-4-(2,2,2-trichloroacetamido)phenyl)benzamide]
[1]
  pest or weed control at 50 µg/cm2: 50 to 100%
[2]
  pest or weed control at 50 µg/cm2: 50 to 100%

## O=C(Nc1ccc(F)cc1F)c1cc(NC(=O)[C@H]2[C@@H](c3cc(Cl)c(Cl)c(C(F)(F)F)c3)C2(Cl)Cl)ccc1Cl (relative stereo) [F1148, cis-2-Chloro-5-(2,2-dichloro-3-(3,4-dichloro-5-(trifluoromethyl)phenyl)cyclopropane-1-carboxamido)-N-(2,4-difluorophenyl)benzamide]
[1]
  pest or weed control at 50 µg/cm2: 50 to 100%
[2]
  pest or weed control at 50 µg/cm2: 50 to 100%

## Cc1cc(NC(=O)[C@H]2[C@H](c3ccc(F)c(Cl)c3)C2(Cl)Cl)cc(C(=O)Nc2ccc(F)c(N)c2F)c1F (relative stereo) [F1151, trans-N-(3-Amino-2,4-difluorophenyl)-5-(2,2-dichloro-3-(3-chloro-4-fluorophenyl)cyclopropane-1-carboxamido)-2-fluoro-3-methylbenzamide]
[1]
  pest or weed control at 50 µg/cm2: 50 to 100%
[2]
  pest or weed control at 50 µg/cm2: 50 to 100%

## Nc1c(F)ccc(NC(=O)c2cc(NC(=O)[C@H]3[C@H](c4ccc(F)c(Cl)c4)C3(Cl)Cl)cc(F)c2Cl)c1F (relative stereo) [F1156, trans-N-(3-Amino-2,4-difluorophenyl)-2-chloro-5-(2,2-dichloro-3-(3-chloro-4-fluorophenyl)cyclopropane-1-carboxamido)-3-fluorobenzamide]
[1]
  pest or weed control at 50 µg/cm2: 50 to 100%
[2]
  pest or weed control at 50 µg/cm2: 50 to 100%

## Cc1cc(NCCC(N)=O)ccc1NC(=O)c1cc(NC(=O)[C@H]2[C@H](c3cc(Cl)cc(Cl)c3)C2(Cl)Cl)ccc1Cl (relative stereo) [F1158, trans-N-(4-((3-Amino-3-oxopropyl)amino)-2-methylphenyl)-2-chloro-5-(2,2-dichloro-3-(3,5-dichlorophenyl)cyclopropane-1-carboxamido)benzamide]
[1]
  pest or weed control at 50 µg/cm2: 50 to 100%
[2]
  pest or weed control at 50 µg/cm2: 50 to 100%

## COCCN(C(=O)OC(C)(C)C)c1ccc(NC(=O)c2cc(NC(=O)[C@H]3[C@H](c4cc(Cl)cc(Cl)c4)C3(Cl)Cl)ccc2Cl)c(C)c1 (relative stereo) [F1159, trans-tert-Butyl-(4-(2-chloro-5-(2,2-dichloro-3-(3,5-dichlorophenyl)cyclopropane-1-carboxamido)benzamido)-3-methylphenyl)(2-methoxyethyl)carbamate]
[1]
  pest or weed control at 50 µg/cm2: 50 to 100%
[2]
  pest or weed control at 50 µg/cm2: 50 to 100%

## Cc1cc(NCc2ccc(C(F)(F)F)cc2)ccc1NC(=O)c1cc(NC(=O)[C@H]2[C@H](c3cc(Cl)cc(Cl)c3)C2(Cl)Cl)ccc1Cl (relative stereo) [F1165, trans-2-Chloro-5-(2,2-dichloro-3-(3,5-dichlorophenyl)cyclopropane-1-carboxamido)-N-(2-methyl-4-((4-(trifluoromethyl)benzyl)amino)phenyl)benzamide]
[1]
  pest or weed control at 50 µg/cm2: 50 to 100%
[2]
  pest or weed control at 50 µg/cm2: 50 to 100%

## Nc1c(F)ccc(NC(=O)c2cc(NC(=O)[C@H]3[C@@H](c4cc(F)c(Cl)c(C(F)(F)F)c4)C3(Cl)Cl)ccc2Cl)c1F (relative stereo) [F1168, cis-N-(3-Amino-2,4-difluorophenyl)-2-chloro-5-(2,2-dichloro-3-(4-chloro-3-fluoro-5-(trifluoromethyl)phenyl)cyclopropane-1-carboxamido)benzamide]
[1]
  pest or weed control at 50 µg/cm2: 50 to 100%
[2]
  pest or weed control at 50 µg/cm2: 50 to 100%

## COc1c(F)ccc(NC(=O)c2cc(NC(=O)[C@H]3[C@H](c4cc(Cl)cc(Cl)c4)C3(Cl)Cl)ccc2Cl)c1F (relative stereo) [F1171, trans-2-chloro-5-(2,2-dichloro-3-(3,5-dichlorophenyl)cyclopropane-1-carboxamido)-N-(2,4-difluoro-3-methoxyphenyl)benzamide]
[1]
  pest or weed control at 50 µg/cm2: 50 to 100%
[2]
  pest or weed control at 50 µg/cm2: 50 to 100%

## Cc1cc(NCCc2ccccc2)ccc1NC(=O)c1cc(NC(=O)[C@H]2[C@H](c3cc(Cl)cc(Cl)c3)C2(Cl)Cl)ccc1Cl (relative stereo) [F1177, trans-2-Chloro-5-(2,2-dichloro-3-(3,5-dichlorophenyl)cyclopropane-1-carboxamido)-N-(2-methyl-4-(phenethylamino)phenyl)benzamide]
[1]
  pest or weed control at 50 µg/cm2: 50 to 100%
[2]
  pest or weed control at 50 µg/cm2: 50 to 100%

## Cc1cc(NCC(C)c2ccccc2)ccc1NC(=O)c1cc(NC(=O)[C@H]2[C@H](c3cc(Cl)cc(Cl)c3)C2(Cl)Cl)ccc1Cl (relative stereo) [F1178, trans-2-Chloro-5-(2,2-dichloro-3-(3,5-dichlorophenyl)cyclopropane-1-carboxamido)-N-(2-methyl-4-((2-phenylpropyl)amino)phenyl)benzamide]
[1]
  pest or weed control at 50 µg/cm2: 50 to 100%
[2]
  pest or weed control at 50 µg/cm2: 50 to 100%

## O=C(Nc1ccccc1)c1cc(NC(=O)[C@H]2[C@H](c3ccc(F)c(Cl)c3)C2(Cl)Cl)cc(Cl)c1F (relative stereo) [F1194, trans-3-Chloro-5-(2,2-dichloro-3-(3-chloro-4-fluorophenyl)cyclopropane-1-carboxamido)-2-fluoro-N-phenylbenzamide]
[1]
  pest or weed control at 50 µg/cm2: 50 to 100%
[2]
  pest or weed control at 50 µg/cm2: 50 to 100%

## O=C(Nc1ccc(F)cc1)c1cc(NC(=O)[C@H]2[C@H](c3ccc(F)c(Cl)c3)C2(Cl)Cl)cc(Cl)c1F (relative stereo) [F1195, trans-3-Chloro-5-(2,2-dichloro-3-(3-chloro-4-fluorophenyl)cyclopropane-1-carboxamido)-2-fluoro-N-(4-fluorophenyl)benzamide]
[1]
  pest or weed control at 50 µg/cm2: 50 to 100%
[2]
  pest or weed control at 50 µg/cm2: 50 to 100%

## O=C(Nc1ccc(F)cc1F)c1cc(NC(=O)[C@H]2[C@H](c3ccc(F)c(Cl)c3)C2(Cl)Cl)cc(Cl)c1F (relative stereo) [F1196, trans-3-Chloro-5-(2,2-dichloro-3-(3-chloro-4-fluorophenyl)cyclopropane-1-carboxamido)-N-(2,4-difluorophenyl)-2-fluorobenzamide]
[1]
  pest or weed control at 50 µg/cm2: 50 to 100%
[2]
  pest or weed control at 50 µg/cm2: 50 to 100%

## CC(=O)Nc1ccc(NC(=O)c2cc(NC(=O)[C@H]3[C@H](c4ccc(F)c(Cl)c4)C3(Cl)Cl)cc(Cl)c2F)cc1 (relative stereo) [F1197, trans-N-(4-Acetamidophenyl)-3-chloro-5-(2,2-dichloro-3-(3-chloro-4-fluorophenyl)cyclopropane-1-carboxamido)-2-fluorobenzamide]
[1]
  pest or weed control at 50 µg/cm2: 50 to 100%
[2]
  pest or weed control at 50 µg/cm2: 50 to 100%

## Cc1cc(NC(=O)CCCN)ccc1NC(=O)c1cc(NC(=O)[C@H]2[C@H](c3ccc(Cl)c(Cl)c3)C2(Cl)Cl)ccc1Cl (relative stereo) [F1202, trans-N-(4-(4-Aminobutanamido)-2-methylphenyl)-2-chloro-5-(2,2-dichloro-3-(3,4-dichlorophenyl)cyclopropane-1-carboxamido)benzamide]
[1]
  pest or weed control at 50 µg/cm2: 50 to 100%
[2]
  pest or weed control at 50 µg/cm2: 50 to 100%
